Test results from patent US7419790B2, “Sodium-independent transporter carrying acidic amino acid and its gene” (J-Pharma Co., Ltd, priority 2002, dated 2008).

B1: AGT1-rBAT fusion protein (Mus musculus) (protein)
chain: MAMDSKKEIRLKRELGYFWGTNFLIINIIGAGIFVSPKGVLQHSSMNVGVSLCVWAVCAVLTLTSALCSAEIGITFPYSGAHYYFLKRCFGPLVAFLRLWTSLFLGPGLIASQALLLAEYGVQPFYPSCSAPILPRKCLALAMLWIVGILNSRGVKELSWLQTVSSVLKVGILGVISLSGLFLLVRGKKENVQRLQNAFDAEFPEVSQLIEAIFQGYFAFSGGGCFTCIAGELKKPSKTIPRCIFTGLPLVTVVYLLANISYLTVLTPQEMLSSDAVALTWTDRVIPQFTWTVPFAISASLFINLVINVLETSRVLYIASENGQLPLLFCALNVHSSPFIAVLLIISMASILIVLTNLIDLINYLYFVVSIWTALSIIGILKLRYQEPNLHRPYKVFLPFTFIALGITLSLVLIPLVKSPKLHYIYVFLFLLSGLVFYVPLIHFKVKFVWFQKLTCYLQLLFNICIPDVSDDHIHEESAAADEDKGKRDPIQMSLKGCRTNNGFVQNEDIPEQDPDPGSRDTPQPNAVSIPAPEEPHLKAVRPYAGMPKEVLFQFSGQARYRVPREILFWLTVVSVFLLIGATIAIIVISPKCLDWWQAGPIYQIYPRSFKDSDKDGNGDLKGIQEKLDYITALNIKTLWITSFYKSSLKDFRYAVEDFKEIDPIFGTMKDFENLVAAIHDKGLKLIIDFIPNHTSDKHPWFQSSRTRSGKYTDYYIWHNCTHVNGVTTPPNNWLSVYGNSSWHFDEVRKQCYFHQFLKEQPDLNFRNPAVQEEIKEIITFWLSKGVDGFSFDAVKFLLEAKDLRNEIQVNTSQIPDTVTHYSELYHDFTTTQVGMHDIVRDFRQTMNQYSREPGRYRFMGAEASAESIERTMMYYGLPFIQEADFPFNKYFTTIGTLSGHTVYEVITSWMENMPEGKWPNWMTGGPETPRLTSRVGSEYVNAMHMLLFTLPGTPITYYGEEIGMGDISVTNFNESYDSTTLVSKSPMQWDNSSNAGFTEANHTWLPTNSDYHTVNVDVQKTQPSSALRLYQDLSLLHATELVLSRGWFCLLRDDSHSVVYTRELDGIDNVFLVVLNFGESSTVLNLQGIISDLPPELRIRLSTNSASKGSAVDTRAISLEKGEGLVLEHSTKAPLHQQAAFRDRCFVSSRACYSSALDILYSSC

Columns and labels:
[1] = molecular target: T1, AGT1-4F2hc fusion protein (Mus musculus, UniProt P10852+Q91WN3); experiment: Inhibition of 14C-aspartic acid uptake by added amino acids and analogues, oocytes expressing AGT1-4F2hc; type: cell-based; conditions: 2 mM non-labeled compound, 14C-aspartic acid 20 μM, sodium-free uptake solution
T1 sequence (Q91WN3+P10852 with tags, fused parts or gaps): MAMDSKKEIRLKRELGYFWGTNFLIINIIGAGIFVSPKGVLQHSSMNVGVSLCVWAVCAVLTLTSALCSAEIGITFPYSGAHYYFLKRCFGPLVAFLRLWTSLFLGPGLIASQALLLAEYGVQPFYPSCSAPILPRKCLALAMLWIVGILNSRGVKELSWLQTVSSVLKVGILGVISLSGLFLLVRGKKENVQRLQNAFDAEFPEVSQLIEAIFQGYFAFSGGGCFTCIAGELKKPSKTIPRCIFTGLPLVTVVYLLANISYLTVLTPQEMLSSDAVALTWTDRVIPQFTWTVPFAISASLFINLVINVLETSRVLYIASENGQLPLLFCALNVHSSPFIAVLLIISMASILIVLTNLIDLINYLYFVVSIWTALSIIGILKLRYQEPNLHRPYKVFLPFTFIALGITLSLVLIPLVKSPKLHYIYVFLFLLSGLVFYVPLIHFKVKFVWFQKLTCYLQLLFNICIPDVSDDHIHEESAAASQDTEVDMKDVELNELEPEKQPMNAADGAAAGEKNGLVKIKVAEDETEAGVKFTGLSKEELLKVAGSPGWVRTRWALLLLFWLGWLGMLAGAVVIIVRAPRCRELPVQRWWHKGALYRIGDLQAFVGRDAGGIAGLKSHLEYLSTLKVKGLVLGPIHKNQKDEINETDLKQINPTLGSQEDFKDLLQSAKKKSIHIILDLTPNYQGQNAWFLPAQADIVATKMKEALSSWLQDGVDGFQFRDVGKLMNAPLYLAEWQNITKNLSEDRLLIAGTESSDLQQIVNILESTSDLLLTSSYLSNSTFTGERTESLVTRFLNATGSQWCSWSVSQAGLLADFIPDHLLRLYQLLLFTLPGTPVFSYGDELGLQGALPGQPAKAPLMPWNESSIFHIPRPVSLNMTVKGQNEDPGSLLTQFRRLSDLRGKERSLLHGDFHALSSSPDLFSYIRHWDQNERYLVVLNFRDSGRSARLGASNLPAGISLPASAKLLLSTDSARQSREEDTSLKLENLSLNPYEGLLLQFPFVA
Protocol: However, a sodium-free uptake solution was used and the uptake ^14C-aspartic acid (20 μM) was measured in the presence and absence of 2 mM of various compounds (non-labeled).

N[C@@H](CCC(=O)O)C(=O)O = experiment: cells, lysate or membranes; conditions: other: substrate transport by AGT1-4F2hc in Xenopus oocytes, sodium-free uptake solution; mean value ± standard error; pH 7.4
Protocol: (§1) The oocyte were allowed to stand for 30 minutes in a sodium-free uptake solution (100 mM choline chloride, 2 mM potassium chloride, 1.8 mM calcium chloride, 1 mM magnesium chloride and 5 mM HEPES; pH 7.4) containing ^14 C-aspartic acid (20 μM) as a substrate and an uptake rate of the substrate was measured by the count of radioactivity incorporated into the cells.
(§2) The Michaelis-Menten kinetic analysis was conducted by investigating the change in the ratio of uptake of aspartic acid by the difference in the substrate aspartic acid concentration.
(§3) The aspartic acid uptake experiment was carried according to the method mentioned in the above Example 2(2) using the oocyte into which a cRNA of a gene of a fusion protein of AGT1 with 4F2hc or with rBAT (AGT1-4F2hc or AGT1-rBAT) was injected.
(§4) The Michaelis-Menten kinetic analysis was similarly carried out in a fusion protein of AGT1 with 4F2hc (AGT1-4F2hc) in glutamic acid and Km value and Vmax value were calculated.

AGT1-rBAT fusion protein = molecular target: T2, AGT1-rBAT fusion protein (Mus musculus, UniProt Q91WN3+Q91WV7); experiment: Uptake of 14C-aspartic acid by oocytes expressing AGT1-rBAT; type: cell-based; conditions: oocyte injected with AGT1-rBAT cRNA; 14C-aspartic acid 20 μM, 30 minutes, compared with water-injected control
T2 construct: expressed in transfected cells; host or cells: oocyte injected with AGT1-rBAT fusion protein gene cRNA
T2 sequence (Q91WN3+Q91WV7 with tags, fused parts or gaps): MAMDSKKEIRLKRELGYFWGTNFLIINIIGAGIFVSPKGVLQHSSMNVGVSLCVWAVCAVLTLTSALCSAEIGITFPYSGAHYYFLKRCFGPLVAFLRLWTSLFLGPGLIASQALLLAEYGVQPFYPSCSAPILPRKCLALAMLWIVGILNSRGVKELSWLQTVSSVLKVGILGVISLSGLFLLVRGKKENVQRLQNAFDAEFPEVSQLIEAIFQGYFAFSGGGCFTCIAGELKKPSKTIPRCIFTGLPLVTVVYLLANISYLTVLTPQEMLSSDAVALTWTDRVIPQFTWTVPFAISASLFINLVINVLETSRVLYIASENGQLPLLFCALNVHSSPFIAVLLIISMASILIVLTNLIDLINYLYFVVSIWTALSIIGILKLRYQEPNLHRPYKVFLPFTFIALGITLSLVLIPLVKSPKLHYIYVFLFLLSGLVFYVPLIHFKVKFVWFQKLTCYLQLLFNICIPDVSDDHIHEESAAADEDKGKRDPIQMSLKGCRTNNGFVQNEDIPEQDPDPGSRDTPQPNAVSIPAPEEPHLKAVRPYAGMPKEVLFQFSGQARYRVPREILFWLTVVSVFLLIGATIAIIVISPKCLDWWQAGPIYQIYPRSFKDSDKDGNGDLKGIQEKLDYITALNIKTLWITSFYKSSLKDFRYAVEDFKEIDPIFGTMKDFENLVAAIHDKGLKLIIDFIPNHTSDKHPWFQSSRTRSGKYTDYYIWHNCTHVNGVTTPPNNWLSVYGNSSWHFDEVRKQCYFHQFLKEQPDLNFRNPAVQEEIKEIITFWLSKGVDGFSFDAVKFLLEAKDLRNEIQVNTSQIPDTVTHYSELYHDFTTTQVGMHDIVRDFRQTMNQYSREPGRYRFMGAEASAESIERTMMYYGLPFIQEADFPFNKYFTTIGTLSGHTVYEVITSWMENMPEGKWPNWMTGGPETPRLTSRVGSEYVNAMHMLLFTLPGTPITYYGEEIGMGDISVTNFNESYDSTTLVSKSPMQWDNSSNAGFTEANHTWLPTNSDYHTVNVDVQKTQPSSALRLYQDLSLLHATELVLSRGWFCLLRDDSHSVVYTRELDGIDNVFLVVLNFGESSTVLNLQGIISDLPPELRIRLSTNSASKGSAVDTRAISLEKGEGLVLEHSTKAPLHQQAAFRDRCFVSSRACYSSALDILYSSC

[2] = molecular target: T1, AGT1-4F2hc fusion protein; experiment: Michaelis-Menten kinetic analysis of substrate uptake by oocytes expressing AGT1-4F2hc; conditions: AGT1-4F2hc in oocytes; ratio to Vmax value of L-aspartic acid; mean value ± standard error
Protocol: as §1, §2, §3, §4

[3] = molecular target: T1, AGT1-4F2hc fusion protein; experiment: Uptake of radio-labeled amino acids by oocytes expressing AGT1-4F2hc; type: cell-based; conditions: oocyte injected with AGT1-4F2hc cRNA, 14C compound as substrate
Excerpt: With regard to a substrate, various compounds which were labeled with radioactivity were used instead of ^14C-aspartic acid.

[4] = substrate: N[C@@H](CC(=O)O)C(=O)O; experiment: cells, lysate or membranes; conditions: other: AGT1-rBAT in Xenopus oocytes; pH 7.4

Row | Molecule | effect on uptake of 14C-aspartic acid mediated by AGT1-4F2hc (cis-inhibition) [1] | further results
1 | NC(C(=O)O)C(O)C(=O)O (stereo not drawn) [threo-β-hydroxyaspartate] | strongly inhibited | 
2 | N[C@@H](CCS(=O)(=O)O)C(=O)O [L-homocysteate] | no inhibition effect | 
3 | AGT1-4F2hc fusion protein (Mus musculus) |  | Km (N[C@@H](CCC(=O)O)C(=O)O): 21.8 ± 6.5 µM
4 | CC(C)[C@H]1CN[C@H](C(=O)O)[C@H]1CC(=O)O [dihydrokainate] | no inhibition effect | 
5 | O=C(O)[C@@H]1CN[C@@H](C(=O)O)C1 (relative stereo) [L-trans-pyrrolidine-2,4-dicarboxylate] | no inhibition effect | 
6 | N[C@@H](COS(=O)(=O)O)C(=O)O [L-serine-O-sulfate] | strongly inhibited | 
7 | N[C@@H](CSSC[C@H](N)C(=O)O)C(=O)O [cystine] | did no affect | 
8 | N[C@@H](CS)C(=O)O [cysteine] | significant cis-inhibiting effect | 
9 | N[C@H](CC(=O)O)C(=O)O [D-aspartic acid] | did no affect | 
10 | N[C@@H](CS(=O)(=O)O)C(=O)O [L-cysteate] | strongly inhibited | 
11 | γ-aminoisobutyric acid | did no affect | 
12 | NC1(C(=O)O)CC2CCC1C2 (stereo not drawn) [2-amino-2-norbornane-carboxylic acid] | did no affect | 
13 | N[C@@H](CC(=O)O)C(=O)O [L-Aspartic acid] | significant cis-inhibiting effect | uptake of aspartic acid into the oocyte (AGT1-rBAT fusion protein): higher uptake; Vmax [2]: (1.00); uptake of radio-labeled substrate into the oocyte ([3]; listed as L-aspartic acid): substantial uptake; uptake of radio-labeled substrate into the oocyte ([3]; listed as aspartic acid): higher uptake
14 | N[C@@H](CCCC(=O)O)C(=O)O [L-α-aminoadipate] | no inhibition effect | 
15 | N[C@H](CCC(=O)O)C(=O)O [D-glutamic acid] | did no affect | 
16 | N[C@@H](CCC(=O)O)C(=O)O [L-Glutamic acid] | significant cis-inhibiting effect | Vmax [2]: 0.63 ± 0.10; uptake of radio-labeled substrate into the oocyte [3]: substantial uptake
17 | N[C@@H](CS)C(=O)O.O=S(=O)(O)O [L-cysteine sulfate] | strongly inhibited | 
18 | B1 |  | Km [4]: 20.1 ± 6.1 µM
